≈ marks a conversion by molar mass, not a printed value.
What was measured:
[1] = Animal model of infection of Compound 4: RLI, 2Log Red; type: in vivo, rats; conditions: RLI (rat lung infection model), ED50
[2] = Animal model of infection of Compound 4: MPT, ED50; type: in vivo, mice; conditions: Mus musculus, MPT (mouse protection test model)
[3] = Tissue accumulation of Compound 1 at the site of infection (infected skin tissue); conditions: mouse, po, 50 mg/kg
H. influenzae = assay: MIC by micro-dilution method, H. influenzae isolates; type: cell-based, Haemophilus influenzae; conditions: examples of U.S. Pat. No. 6,878,691 for reference; for MIC H. influenzae 33929: H. influenzae isolate 33929; for MIC H. influenzae 49247: H. influenzae isolate 49247
Procedure: Susceptibility tests can be used to quantitatively measure the in vitro activity of an antimicrobial agent against a given bacterial isolate. Compounds are tested for in vitro antibacterial activity by a micro-dilution method. Minimal Inhibitory Concentration (MIC) is determined in 96 well microtiter plates utilizing the appropriate broth medium for the observed bacterial isolates. […] The diluted compounds (2 μl/well) are then transferred into sterile, uninoculated medium (0.2 mL) by use of a 96 fixed tip-pipetting station. The inoculum for each bacterial strain is standardized to approximately 5×10^5 CFU/mL by optical comparison to a 0.5 McFarland turbidity standard. The plates are inoculated with 10 μl/well of adjusted bacterial inoculum. The 96 well plates are covered and incubated at 35+/−2° C. for 24 hours in ambient air environment. Following incubation, plate wells are visually examined by Optical Density measurement for the presence of growth (turbidity). The lowest concentration of an antimicrobial agent at which no visible growth occurs is defined as the MIC.
All in vitro testing follows the guidelines described in the Approved Standards M7-A7 protocol, published by the Clinical Laboratory Standards Institute (CLSI).

MRSA = assay: MIC by micro-dilution method, MRSA isolates; type: cell-based, Staphylococcus aureus; conditions: MRSA isolate 33591; examples of U.S. Pat. No. 6,878,691 for reference
Procedure, shortened: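 CLSI M7-A7 broth microdilution with inoculum about 5×10^5 CFU/mL, in broth suited to each isolate. Plates incubated 24 h at 35±2 °C in ambient air. MIC is the lowest concentration without visible growth, judged by optical density.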

[4] = Rat PK of amino acid prodrug after IV/PO administration; type: in vivo; conditions: plasma, 10 mg/kg IV, prodrug itself, read-out: AUC0-∝

With `CC[C@H]1OC(=O)[C@H](C)C(=O)[C@H](C)[C@@H](O[C@@H]2O[C@H](C)C[C@H](N(C)C)[C@H]2O)[C@](C)(OC)C[C@@H](C)C(=O)[C@H](C)[C@H]2N(CCCCn3cnc(-c4cccnc4)c3)C(=O)O[C@]12C` [Telithromycin, telithromycin] the “2Log Red” value ([1]; H. influenzae 1435) was 49 mg/kg, the “2Log Red” value ([1]; H. influenzae 3643) was 78 mg/kg and the “2Log Red” value ([1]; H. influenzae S1280) was 56 mg/kg. The ED50 ([2]; S. aureus Smith) was 11 mg/kg and the ED50 ([2]; S. pneumoniae 7701) was 10 mg/kg.

`CCC(=O)/N=C1\[C@H](C)C[C@@]2(C)OC/C(=N/OCc3ccc(-c4nc(N)cs4)cn3)CO[C@H]([C@H]1C)[C@](C)(O)[C@@H](CC)OC(=O)[C@@](C)(F)C(=O)[C@H](C)[C@H]2O[C@@H]1O[C@H](C)C[C@H](N(C)C)[C@H]1O` [Compound 1] showed an AUC(0-inf) ([3]; infected skin abscess) of 617000 µg·h/mL, an AUC(0-t) ([3]; infected skin abscess) of 257000 µg·h/mL and a Cmax ([3]; infected skin abscess) of 9030 µg/mL. For the same compound, the AUC(0-inf) ([3]; plasma) was 24500 µg·h/mL, the AUC(0-t) ([3]; plasma) was 24400 µg·h/mL and the Cmax ([3]; plasma) was 5120 µg/mL. The AUC(0-inf) ([3]; uninfected skin) was 66600 µg·h/mL, the AUC(0-t) ([3]; uninfected skin) was 54600 µg·h/mL and the Cmax ([3]; uninfected skin) was 3800 µg/mL.

In the case of `CC[C@H]1OC(=O)[C@@](C)(F)C(=O)[C@H](C)[C@@H](O[C@@H]2O[C@H](C)C[C@H](N(C)C)[C@H]2O)[C@@]2(C)C[C@@H](C)C(=NC(C)=O)[C@H](C)[C@@H](OC/C(=N\OCc3ccc(-c4cccc(N)n4)s3)CO2)[C@]1(C)O` [Compound 173, reference compound], the “MIC H. influenzae 33929” value (H. influenzae) is reported as 4 µg/mL (≈ 4.49 µM), the “MIC H. influenzae 49247” value (H. influenzae) is reported as 4 µg/mL (≈ 4.49 µM) and the “MIC MRSA 33591” value (MRSA) is reported as 4 µg/mL (≈ 4.49 µM).

With `CC[C@H]1OC(=O)[C@H](C)C(=O)[C@H](C)[C@@H](O[C@@H]2O[C@H](C)C[C@H](N(C)C)[C@H]2O)[C@@]2(C)C[C@@H](C)C(=NC(C)=O)[C@H](C)[C@@H](OC/C(=N\OCc3ccc(-c4cccs4)nc3)CO2)[C@]1(C)O` [Compound 205, reference compound] the “MIC H. influenzae 33929” value (H. influenzae) was 4 µg/mL (≈ 4.67 µM), the “MIC H. influenzae 49247” value (H. influenzae) was 8 µg/mL (≈ 9.33 µM) and the “MIC MRSA 33591” value (MRSA) was greater than 64 µg/mL.

For `CC[C@H]1OC(=O)[C@H](C)C(=O)[C@H](C)[C@@H](O[C@@H]2O[C@H](C)C[C@H](N(C)C)[C@H]2O)[C@@]2(C)C[C@@H](C)C(=NC(C)=O)[C@H](C)[C@@H](OC/C(=N\OCc3ccc(-c4cccc(N)n4)nc3)CO2)[C@]1(C)O` [Compound 227, reference compound], the “MIC H. influenzae 33929” value (H. influenzae) was 4 µg/mL (≈ 4.61 µM), the “MIC H. influenzae 49247” value (H. influenzae) was 4 µg/mL (≈ 4.61 µM) and the “MIC MRSA 33591” value (MRSA) was 32 µg/mL (≈ 36.9 µM).

In the case of `CC[C@H]1OC(=O)[C@H](C)C(=O)[C@H](C)[C@@H](O[C@@H]2O[C@H](C)C[C@H](N(C)C)[C@H]2O)[C@@]2(C)C[C@@H](C)C(=NC(C)=O)[C@H](C)[C@@H](OC/C(=N\OCc3ccc(-c4ncccn4)cc3)CO2)[C@]1(C)O` [Compound 193, reference compound], the “MIC H. influenzae 33929” value (H. influenzae) is reported as 8 µg/mL (≈ 9.39 µM), the “MIC H. influenzae 49247” value (H. influenzae) is reported as 8 µg/mL (≈ 9.39 µM) and the “MIC MRSA 33591” value (MRSA) is reported as 64 µg/mL (≈ 75.1 µM).

For `CCC(=O)/N=C1\[C@H](C)C[C@@]2(C)OC/C(=N/OCc3ccc(-c4nc(NC(=O)[C@@H](N)CC(C)C)cs4)cn3)CO[C@H]([C@H]1C)[C@](C)(O)[C@@H](CC)OC(=O)[C@@](C)(F)C(=O)[C@H](C)[C@H]2O[C@@H]1O[C@H](C)C[C@H](N(C)C)[C@H]1O` [Compounds 6], the AUC [4] was 0.21 µg·h/mL.

From patent publication US20130165641A1, “6,11-BRIDGED BIARYL MACROLIDES” (Enanta Pharmaceuticals, Inc., priority 2007, published 2013)
